Series [1] relates to L. major amastigotes. The experiment in a line: microbe, parasite or virus in culture. It is filed as cell-based. To be noted: Leishmania major; intracellular amastigotes in BMDM, 24 h; read-out: Cytotoxicity (μM) L. major amastigotes (IC50). The procedure:
Luciferase-transgenic (Luc-tg) L. major has been generated as described previously. The virulence of Luc-tg L. major was maintained by passage in female BALB/c mice and promastigotes were grown in vitro in blood agar cultures with addition of 50 μg/mL hygromycin B using the same conditions as described above.
A detailed protocol of antileishmanial investigations against intracellular L. major amastigotes residing within bone marrow-derived macrophages (BMDM) is described elsewhere. Briefly, 2 × 10^5/ml BMDM were infected with Luc-tg L. major promastigotes at a ratio of 1:15 for 24 h. These infected BMDM were cultured in the absence or presence of increasing concentrations of the tested compounds 1 and 2 for 24 h prior to the supplement of Britelite plus (PerkinElmer, Waltham, MA, USA) for 5 min. Britelite plus is a very sensitive assay for the quantification of firefly luciferase in Leishmania parasites. The luminescence was measured using a Victor X Light 2030 luminometer (PerkinElmer, Waltham, MA, USA).

The test system of series [2] is L. major promastigotes. The experiment in a line: Diff-Quik staining and transmitted light microscopy, cell morphology. It counts as cell-based, Leishmania major. As to conditions: 100 μM. As for the experimental part: L. major parasites harvested from blood agar cultures were washed twice with Dulbecco’s phosphate-buffered saline (DPBS; Invitrogen, Darmstadt, Germany) and centrifuged at 3.000 × g for 10 min. The pellet was suspended in RPMI 1640 medium at a final concentration of 1 × 10^8 cells/ml. Cells were treated with 1% DMSO, 122.7 μM miltefosine (1-hexadecylphorylcholine; apoptosis inducer), or 100 μM of the tested compounds 1 and 2 in a final volume of 200 μl in 96 well plates. Samples were incubated at 27°C in 5% CO2 for several time points between 30 min and 24 h. Transmitted light microscopic, transmission electron microscopic (TEM), and flow cytometric techniques were used to find phenotypic patterns caused by the treatment with the tested compounds.
After incubation for 30 min, 1 h, 2 h, 4 h, and 24 h in the presence of the tested compounds 1 and 2, promastigotes were harvested and centrifuged in a Cytospin 3 centrifuge (Shandon, Frankfurt, Germany) on microscope slides at 253 × g for 5 min at room temperature (RT). Cytospin preparations of cells were stained using the Differential Quick Stain (Diff-Quik) dye (Medion Diagnostics AG, Duedingen, Switzerland), according to the manufacturers’ protocol with some modifications. Diff-Quik stains the leishmanial nuclei and the kinetoplasts dark purple and the cytoplasm light purple allowing the observation of phenotypic changes within the parasite. Briefly, air-dried cells were fixed by dipping the slides 5 times for 3 seconds in fixative solution. Subsequently the slides were stained with Solution I following Solution II (from Diff-Quik kit) and air-dried between each staining steps. Finally, the samples were rapidly dipped once in ultra-pure water (produced by a TKA purification system apparatus, Niederelbert, Germany) to remove excessive staining solutions. The air-dried cells were analyzed by transmitted light microscopy under a 50× objective on a Nikon ECLIPSE 50i microscope equipped with a digital camera (Nikon, Tokyo, Japan). The images were processed using NIS Elements D software (Nikon).

Series [3] deals with L. major. The experiment in a line: In vivo antileishmanial activity in L. major-infected BALB/c mice. The procedure: Female BALB/c mice (11 per group; three groups in total) were infected with 2 × 10^5 L. major promastigotes in 30 μL phosphate-buffered saline (PBS) into the right hind footpad under isoflurane inhalation anaesthesia using the UniVet Porta system (Groppler, Deggendorf, Germany). The clinical manifestation of L. major infection was monitored twice a week by determination of the body weight (g) and footpad size (mm) of the infected (iFP) and the non-infected footpad (niFP) serving as negative control. The footpad swelling describes the difference in mm between the iFP and niFP of individual mice. Three weeks post infection (p.i.) the mice were randomly divided into three groups of 11 for different treatment regimens. On day 21, 25, and 28 p.i. the respective groups were either left untreated, treated intraperitoneally (i.p.) with 100 μl of solvent (infected, 50% DMSO/PBS) or 100 μl 50 mg/kg/day of compound 2 in 50% DMSO/PBS. This high dose of compound 2 was chosen to identify its antileishmanial in vivo efficacy in L. major-infected BALB/c mice. The close monitoring of body weight and footpad swelling was continued until the end of experiment. On day 35 p.i. mice were sacrificed by CO2 inhalation and single cell suspensions from the iFP, draining popliteal lymph nodes (pLN) and spleens were obtained. The parasite burden was determined by limiting dilution assays as described previously. It was not necessary to apply any analgesics or anaesthetics during the animal trials.

[4] abbreviates: 50 mg/kg/day i.p. days 21, 25, 28, day 35 p.i.

By IC50 is commonly meant the concentration at which inhibition is half-maximal. In the case of `CC1(C)C2CCC1(C)C(OC(=O)C=Cc1ccccc1)C2` (single isomer, unassigned; (-)) [Compound 1, (-)-Bornyl cinnamate], the concentration for half-maximal inhibition (IC50) in series [1] was determined as 10.9 µM. In addition, the “Time after which vacuolization and changes in cell morphology were observable” value in series [2] was determined as 30 min.
On to `CC1(C)C2CCC1(C)C(OC(=O)CCc1ccccc1)C2` (single isomer, unassigned; (-)) [Compound 2, (-)-bornyl 3-phenylpropionate], for which, in series [3] (50 mg/kg/day i.p. days 21, 25, 28), the “Side effects in vivo” value is “did not have any strong side effects”. Further, in series [3] (setting [4]), the “Parasite burden in the spleen (LDA)” value was “only numerically reduced”, the “Reduction of parasite burden within the infected footpads (LDA)” value is listed as ~ 100 fold and the “Reduction of parasite burden within the popliteal lymph nodes (LDA)” value is ~ 10.000 fold. The “Body weight of infected mice” value in series [3] (50 mg/kg/day i.p. on days 21, 25, 28 p.i., during the treatment regimen) is given as “not affected”. In series [3] (50 mg/kg/day i.p. on days 21, 25, 28 p.i., vs untreated or solvent control-treated mice), the “Footpad swelling (difference between infected and non-infected footpad)” value is “reduced footpad swelling”. Moreover, the IC50 in series [1] came to 89.1 µM. For the same compound, the “Time after which vacuolization and changes in cell morphology were observable” value in series [2] is given as 1 h.

Values taken from article PMC4640567, “Cinnamic Acid Bornyl Ester Derivatives from Valeriana wallichii Exhibit Antileishmanial In Vivo Activity in Leishmania major-Infected BALB/c Mice” (PLoS ONE, 2015).
